{
  "source": "patent US20020137154A1",
  "about": "“Methods for improving cell growth and alcohol production during fermentation” (priority 2000, published 2002)",
  "tested_on": "recombinant Escherichia coli KO11",
  "assay": "Batch fermentation of E. coli KO11 in Luria broth and xylose with nutrient additives: ethanol production and cell growth",
  "assay_type": "cell-based",
  "conditions": "LB+xylose",
  "description": "Two types of media were tested: 1% CSL and Luria broth (LB). Each contained 97 g of either xylose or glucose per liter. Luria Broth consists of, per liter: 10 g Difco® Tryptone, 5 g Difco® Yeast Extract and 5 g NaCl. The 1% CSL medium consists of Corn Steep Liquor (1% w/v) plus mineral salts (mineral salts per liter: 1 g of KH2PO4. 0.5 g of K2HPO4, 3.1 g of (NH4)2SO4, 0.4 g of MgCl2·6H2), and 20 mg FeCl3·6H2O).\nLuria Broth was prepared by autoclaving a 2× nutrient stock containing, per liter: 20 g Difco® Tryptone, 10 g Difo® Yeast Extract, and 10 g NaCl. Sugars (xylose or glucose) were autoclaved separately. A 1% CSL medium was prepared as follows: Commercial Corn Steep Liquor (CSL; 50% dry weight/50% water) was diluted with tap water to make a 20X stock containing 100 g dry weight of Corn Steep Liquor/L and was adjusted to pH 7.2 with NaOH (50%). After sterilization by autoclaving, the 20X CSL stock was clarified by centrifugation at 5000×g for 10 minutes. Magnesium was added as a 100× stock solution (40 g/L MgCl2·6H2O). Iron was added as a 1000× stock solution made by dissolving 20 g FeCl3·6H2O in 175 mL of HCl and adjusting to 1 L with sterile water. Nitrogen, sulfur and phosphorus were added using a 20× stock solution containing the following (per liter): 20 g of KH2PO4, 10 g of K2HPO4 and 62 g of (NH4)2SO4. Stock solutions containing minerals were sterilized separately by autoclaving. Final media was prepared by adding 750 mL of water to 1 L bottle containing 100 g of xylose or glucose.\nInocula were grown in same media used for fermentation and were prepared as follows. Three colonies from a fresh plate were used to inoculate seed cultures: 250-mL flask containing 100 mL medium. These cultures were grown with agitation (120 rpm) for 12-16 hours at 35° C. to a final OD550nm of approximately 2.0-2.5. Cells were harvested by centrifugation at 5000×g for 5 minutes, and resuspended in fresh media to an OD550nm of 0.1. The resulting suspension was distributed into 500-mL beakers containing 345 ml each of fermentation medium. Acetaldehyde was added as indicated. Batch fermentations (35° C., 100 rpm) were maintained at pH 6.5 by the automatic addition of 2N KOH. Cell mass, ethanol, and base addition (2N KOH) were recorded during 96 hours of incubation.\nEquivalent amounts of distilled water were added instead of the acetaldehyde in control experiments.\nAdditives (e.g., as listed in Table 1) were dissolved in 5 mL di-H2O. Solutions with pH lower than 5 were neutralized to pH 6.5 with 2N KOH. Nutritional supplements were then filter-sterilized (0.45 μm filter disk) directly into the fermentation vessel containing the culture. The final concentration of all additives in the culture medium was 2 g/L unless otherwise indicated.\nCell mass was estimated by measuring OD550nm using Baush & Lomb® Spectronic 70 spectrophotometer. […] Ethanol was measured by gas chromatography using a Varian® 3400 CX gas chromatograph with 1-propanol as an internal standard.\nTables 1, 3, and 5 show time to completion of fermentation, ethanol production, and volumetric productivity of the fermentation for all concentrations of the compound and the control. Maximum ethanol production is shown in grams/liter (g/L). The ethanol yield is shown in grams of ethanol/grams of added sugar. Maximum volumetric productivity is shown in grams ethanol/(liter)(hour). The average productivity is calculated form the start of fermentation to the completion of fermentation is grams ethanol/(liter)hour).\nTables 2, 4, and 6 show the initial growth of the cells (OD taken after the first 24 hours of fermentation) and the maximum cell density (the time which culture reaches the maximum OD value).\nAcetaldehyde was added to the fermentation medium at five different concentrations and time points. […] Where two additions are indicated, the first volume was added at the start of fermentation and the second was added after 8 hours of fermentation.",
  "data": [
    {"smiles": "CC=O", "note": "[Acetaldehyde, acetaldehyde]", "values": [
      {"measurement": "Ethanol Production Maximum", "setting": "0.25 g/L at start", "result": 43.80, "unit": "g/L"},
      {"measurement": "Ethanol Production Maximum % Control", "setting": "0.25 g/L at start", "result": 101.68, "unit": "%"},
      {"measurement": "Ethanol yield", "setting": "0.25 g/L at start", "result": "0.451 grams of ethanol/grams of added sugar"},
      {"measurement": "Initial Growth (OD at 24 h) % Control", "setting": "0.25 g/L at start", "result": 110.79, "unit": "%"},
      {"measurement": "Initial Growth (OD at 24 h) OD", "setting": "0.25 g/L at start", "result": 11.07, "unit": "OD"},
      {"measurement": "Maximum Cell Density % Control", "setting": "0.25 g/L at start", "result": 100.20, "unit": "%"},
      {"measurement": "Maximum Cell Density OD", "setting": "0.25 g/L at start", "result": 11.07, "unit": "OD"},
      {"measurement": "Maximum Cell Density Time", "setting": "0.25 g/L at start", "result": 24, "unit": "h"},
      {"measurement": "Time to completion", "setting": "0.25 g/L at start", "result": 48, "unit": "h"},
      {"measurement": "Volumetric Productivity Average", "setting": "0.25 g/L at start", "result": "0.913 grams ethanol/(liter)(hour)"},
      {"measurement": "Volumetric Productivity Average % Control", "setting": "0.25 g/L at start", "result": 101.68, "unit": "%"},
      {"measurement": "Volumetric Productivity Maximum", "setting": "0.25 g/L at start", "result": "1.352 grams ethanol/(liter)(hour)"},
      {"measurement": "Volumetric Productivity Maximum % Control", "setting": "0.25 g/L at start", "result": 117.36, "unit": "%"},
      {"measurement": "Ethanol Production Maximum", "setting": "0.5 + 0.25 g/L (start, 8 h)", "result": 41.40, "unit": "g/L"},
      {"measurement": "Ethanol Production Maximum % Control", "setting": "0.5 + 0.25 g/L (start, 8 h)", "result": 96.11, "unit": "%"},
      {"measurement": "Ethanol yield", "setting": "0.5 + 0.25 g/L (start, 8 h)", "result": "0.426 grams of ethanol/grams of added sugar"},
      {"measurement": "Initial Growth (OD at 24 h) % Control", "setting": "0.5 + 0.25 g/L (start, 8 h)", "result": 99.02, "unit": "%"},
      {"measurement": "Initial Growth (OD at 24 h) OD", "setting": "0.5 + 0.25 g/L (start, 8 h)", "result": 9.89, "unit": "OD"},
      {"measurement": "Maximum Cell Density % Control", "setting": "0.5 + 0.25 g/L (start, 8 h)", "result": 97.92, "unit": "%"},
      {"measurement": "Maximum Cell Density OD", "setting": "0.5 + 0.25 g/L (start, 8 h)", "result": 10.81, "unit": "OD"},
      {"measurement": "Maximum Cell Density Time", "setting": "0.5 + 0.25 g/L (start, 8 h)", "result": 48, "unit": "h"},
      {"measurement": "Time to completion", "setting": "0.5 + 0.25 g/L (start, 8 h)", "result": 48, "unit": "h"},
      {"measurement": "Volumetric Productivity Average", "setting": "0.5 + 0.25 g/L (start, 8 h)", "result": "0.863 grams ethanol/(liter)(hour)"},
      {"measurement": "Volumetric Productivity Average % Control", "setting": "0.5 + 0.25 g/L (start, 8 h)", "result": 96.11, "unit": "%"},
      {"measurement": "Volumetric Productivity Maximum", "setting": "0.5 + 0.25 g/L (start, 8 h)", "result": "0.904 grams ethanol/(liter)(hour)"},
      {"measurement": "Volumetric Productivity Maximum % Control", "setting": "0.5 + 0.25 g/L (start, 8 h)", "result": 78.52, "unit": "%"},
      {"measurement": "Ethanol Production Maximum", "setting": "0.5 + 0.5 g/L (start, 8 h)", "result": 41.64, "unit": "g/L"},
      {"measurement": "Ethanol Production Maximum % Control", "setting": "0.5 + 0.5 g/L (start, 8 h)", "result": 96.65, "unit": "%"},
      {"measurement": "Ethanol yield", "setting": "0.5 + 0.5 g/L (start, 8 h)", "result": "0.429 grams of ethanol/grams of added sugar"},
      {"measurement": "Initial Growth (OD at 24 h) % Control", "setting": "0.5 + 0.5 g/L (start, 8 h)", "result": 106.98, "unit": "%"},
      {"measurement": "Initial Growth (OD at 24 h) OD", "setting": "0.5 + 0.5 g/L (start, 8 h)", "result": 10.68, "unit": "OD"},
      {"measurement": "Maximum Cell Density % Control", "setting": "0.5 + 0.5 g/L (start, 8 h)", "result": 106.68, "unit": "%"},
      {"measurement": "Maximum Cell Density OD", "setting": "0.5 + 0.5 g/L (start, 8 h)", "result": 11.78, "unit": "OD"},
      {"measurement": "Maximum Cell Density Time", "setting": "0.5 + 0.5 g/L (start, 8 h)", "result": 48, "unit": "h"},
      {"measurement": "Time to completion", "setting": "0.5 + 0.5 g/L (start, 8 h)", "result": 48, "unit": "h"},
      {"measurement": "Volumetric Productivity Average", "setting": "0.5 + 0.5 g/L (start, 8 h)", "result": "0.867 grams ethanol/(liter)(hour)"},
      {"measurement": "Volumetric Productivity Average % Control", "setting": "0.5 + 0.5 g/L (start, 8 h)", "result": 96.65, "unit": "%"},
      {"measurement": "Volumetric Productivity Maximum", "setting": "0.5 + 0.5 g/L (start, 8 h)", "result": "0.890 grams ethanol/(liter)(hour)"},
      {"measurement": "Volumetric Productivity Maximum % Control", "setting": "0.5 + 0.5 g/L (start, 8 h)", "result": 77.26, "unit": "%"},
      {"measurement": "Ethanol Production Maximum", "setting": "0.5 g/L at start", "result": 42.59, "unit": "g/L"},
      {"measurement": "Ethanol Production Maximum % Control", "setting": "0.5 g/L at start", "result": 98.88, "unit": "%"},
      {"measurement": "Ethanol yield", "setting": "0.5 g/L at start", "result": "0.438 grams of ethanol/grams of added sugar"},
      {"measurement": "Initial Growth (OD at 24 h) % Control", "setting": "0.5 g/L at start", "result": 108.77, "unit": "%"},
      {"measurement": "Initial Growth (OD at 24 h) OD", "setting": "0.5 g/L at start", "result": 10.86, "unit": "OD"},
      {"measurement": "Maximum Cell Density % Control", "setting": "0.5 g/L at start", "result": 107.97, "unit": "%"},
      {"measurement": "Maximum Cell Density OD", "setting": "0.5 g/L at start", "result": 11.92, "unit": "OD"},
      {"measurement": "Maximum Cell Density Time", "setting": "0.5 g/L at start", "result": 48, "unit": "h"},
      {"measurement": "Time to completion", "setting": "0.5 g/L at start", "result": 48, "unit": "h"},
      {"measurement": "Volumetric Productivity Average", "setting": "0.5 g/L at start", "result": "0.887 grams ethanol/(liter)(hour)"},
      {"measurement": "Volumetric Productivity Average % Control", "setting": "0.5 g/L at start", "result": 98.88, "unit": "%"},
      {"measurement": "Volumetric Productivity Maximum", "setting": "0.5 g/L at start", "result": "1.027 grams ethanol/(liter)(hour)"},
      {"measurement": "Volumetric Productivity Maximum % Control", "setting": "0.5 g/L at start", "result": 89.20, "unit": "%"},
      {"measurement": "ethanol production as compared to the control", "setting": "0.5 g/L at the start", "result": "highest amount of ethanol production"},
      {"measurement": "initial growth and maximum cell density as compared to the control", "setting": "0.5 g/L at the start", "result": "greatest initial growth and maximum cell density"},
      {"measurement": "Ethanol Production Maximum", "setting": "0.75 g/L at start", "result": 42.65, "unit": "g/L"},
      {"measurement": "Ethanol Production Maximum % Control", "setting": "0.75 g/L at start", "result": 99.00, "unit": "%"},
      {"measurement": "Ethanol yield", "setting": "0.75 g/L at start", "result": "0.439 grams of ethanol/grams of added sugar"},
      {"measurement": "Initial Growth (OD at 24 h) % Control", "setting": "0.75 g/L at start", "result": 105.54, "unit": "%"},
      {"measurement": "Initial Growth (OD at 24 h) OD", "setting": "0.75 g/L at start", "result": 10.54, "unit": "OD"},
      {"measurement": "Maximum Cell Density % Control", "setting": "0.75 g/L at start", "result": 110.94, "unit": "%"},
      {"measurement": "Maximum Cell Density OD", "setting": "0.75 g/L at start", "result": 12.25, "unit": "OD"},
      {"measurement": "Maximum Cell Density Time", "setting": "0.75 g/L at start", "result": 48, "unit": "h"},
      {"measurement": "Time to completion", "setting": "0.75 g/L at start", "result": 48, "unit": "h"},
      {"measurement": "Volumetric Productivity Average", "setting": "0.75 g/L at start", "result": "0.889 grams ethanol/(liter)(hour)"},
      {"measurement": "Volumetric Productivity Average % Control", "setting": "0.75 g/L at start", "result": 99.00, "unit": "%"},
      {"measurement": "Volumetric Productivity Maximum", "setting": "0.75 g/L at start", "result": "0.916 grams ethanol/(liter)(hour)"},
      {"measurement": "Volumetric Productivity Maximum % Control", "setting": "0.75 g/L at start", "result": 79.50, "unit": "%"}
    ]}
  ]
}
